The values below come from ChEMBL document CHEMBL1159350, “Hemolytic steroid disulfates from the far eastern starfish Pteraster pulvillus” (J Nat Prod, 2003).

The HC50 is the concentration giving 50% haemolysis.

The nature of this data set: Toxicity in mouse erythrocytes assessed as hemolytic activity. The data set is classed as cell-based, Erythrocyte.
As for `CC(C)CCC[C@@H](COS(=O)(=O)O)[C@H]1CC[C@H]2[C@@H]3CC=C4C[C@H](OS(=O)(=O)O)CC[C@]4(C)[C@H]3CC[C@]12C.NCCc1ccc(O)cc1`, the HC50 turned out to be 33 µM. The value for `CC(C)CCC[C@@H](COS(=O)(=O)O)[C@H]1CC[C@H]2[C@@H]3CC[C@H]4[C@@H](O)[C@H](OS(=O)(=O)O)CC[C@]4(C)[C@H]3CC[C@]12C` was 45 µM; that for `CC(C)CCC[C@@H](COS(=O)(=O)O)[C@H]1CC[C@H]2[C@@H]3CC[C@H]4C[C@H](OS(=O)(=O)O)CC[C@]4(C)[C@H]3CC[C@]12C` was 10 µM; that for `CC(C)CCC[C@@H](COS(=O)(=O)O)[C@H]1CC[C@H]2[C@@H]3CC=C4[C@@H](O)[C@H](OS(=O)(=O)O)CC[C@]4(C)[C@H]3CC[C@]12C` was 80 µM. With `CC(C)CCC[C@@H](COS(=O)(=O)O)[C@H]1CC[C@H]2[C@@H]3CC[C@H]4C[C@H](OS(=O)(=O)O)CC[C@]4(C)[C@H]3CC[C@]12C.NCCc1ccc(O)cc1.NCCc1ccc(O)cc1`, the HC50 was 18 µM.
